Assay results as given in US20260335294A1, “TREATING CONGENITAL DISORDERS OF GLYCOSYLATION” (Mayo Foundation for Medical Education and Research, priority 2022, published 2026).

How the values were obtained:
[1] = tested on: patient and control fibroblasts; experiment: 13C6-fructose incubation of fibroblasts, polyol and hexose pools; type: cell-based, human; settings: 0.15 mM 13C6-fructose, 5.5 mM glucose
Procedure: Next, the influence of dietary fructose on the urine polyol levels in PMM2-CDG was evaluated. Fructose has become one of the major sources of energy in the western diet and has been associated with numerous disorders such as diabetes, hypertension, obesity, etc. Peripheral fasting fructose levels range between 0.01-0.07 mM and can increase by 5-fold after consumption of a fructose rich meal. […] The possibility of fructose contributing to the polyols increase seen in PMM2-CDG was therefore tested. First, a fructose tolerance test in individuals with PMM2-CDG (P5) was performed. […] Then, to investigate the contribution of fructose in intracellular polyol accumulation, patient and control fibroblasts were incubated in the presence of 5.5 mM glucose and 0.15 mM (average blood fructose concentration upon fructose rich meal)^13C6-fructose and medium containing dialyzed FBS (FIG. 2A).

[2] = tested on: PMM2-CDG patient (P5); experiment: Fructose tolerance test, urine polyols; type: in vivo, human; settings: P5, fasting, 1 g/kg oral fructose
Procedure: Fructose tolerance test was performed in P5 according to the standard clinical protocol at fasting state with 1 g/kg oral fructose, and the first voided urine was collected.

| Structure (SMILES) | Fractional Contribution (FC) in total hexose pool ([1]; PMM2-CDG and controls) | hexose pool abundance ([1]; dialyzed FBS) | polyol pool abundance ([1]; dialyzed FBS) | fold increase of urine mannitol after fructose tolerance test [2] | fold increase of urine sorbitol after fructose tolerance test [2] |
| --- | --- | --- | --- | --- | --- |
| OCC1(O)OC[C@@H](O)[C@@H](O)[C@@H]1O (some centres unmarked) [^13C6-fructose] | 4% | increase | increase | – | – |
| O=C(CO)[C@@H](O)[C@H](O)[C@H](O)CO [fructose] | – | – | – | 3 times | approximately 7 times |
